In US20030215840A1, “Methods and compositions for treating cardiovascular disease using 1682, 6169, 6193, 7771, 14395, 29002, 33216, 43726, 69292, 26156, 32427, 2402, 7747, 1720, 9151, 60491, 1371, 7077, 33207, 1419, 18036, 16105, 38650, 14245, 58848, 1870, 25856, 32394, 3484, 345, 9252, 9135, 10532, 18610, 8165, 2448, …” (Millennium Pharmaceuticals, Inc., priority 2002, published 2003):

Assays:
29002 mRNA [1] = assay: TaqMan analysis of 29002 mRNA in stimulated endothelial cells; format: cell-based
Procedure: (§1) This example describes the TaqMan™ procedure. […] The TaqMan™ probe includes the oligonucleotide with a fluorescent reporter dye covalently linked to the 5′ end of the probe (such as FAM (6-carboxyfluorescein), TET (6-carboxy-4,7,2′,7′-tetrachlorofluorescein), JOE (6-carboxy-4,5-dichloro-2,7-dimethoxyfluorescein), or VIC) and a quencher dye (TAMRA (6-carboxy-N,N,N′,N′-tetramethylrhodamine) at the 3′ end of the probe.
(§2) RNA was prepared using the trizol method and treated with DNase to remove contaminating genomic DNA. cDNA was synthesized using standard techniques.

17799 mRNA = conditions: niacin marmoset models
Description: (§3) This example describes the TaqMan™ procedure. The Taqman™ procedure is a quantitative, reverse transcription PCR-based approach for detecting mRNA. The RT-PCR reaction exploits the 5′ nuclease activity of AmpliTaq Gold™ DNA Polymerase to cleave a TaqMan™ probe during PCR. Briefly, cDNA was generated from the samples of interest, e.g., heart, kidney, liver, skeletal muscle, and various vessels, and used as the starting material for PCR amplification. In addition to the 5′ and 3′ gene-specific primers, a gene-specific oligonucleotide probe (complementary to the region being amplified) was included in the reaction (i.e., the Taqman™ probe). […]
(§4) During the PCR reaction, cleavage of the probe separates the reporter dye and the quencher dye, resulting in increased fluorescence of the reporter. Accumulation of PCR products is detected directly by monitoring the increase in fluorescence of the reporter dye. When the probe is intact, the proximity of the reporter dye to the quencher dye results in suppression of the reporter fluorescence. […]

32135 mRNA = conditions: niacin models
Description: as §3, §4

6169 mRNA = assay: TaqMan analysis of 6169 mRNA in an African Green Monkey model of atherosclerosis; format: in vivo
Procedure: as §1, §2

21833 mRNA = assay: TaqMan analysis of 21833 in cultured human monocytes and macrophages; format: cell-based; conditions: after stimulation
Procedure: as §1, §2

29002 mRNA [2] = assay: TaqMan analysis of 29002 mRNA in stimulated macrophages; format: cell-based
Procedure: as §1, §2

## CC[C@H](C)C(=O)O[C@H]1CCC=C2C=C[C@H](C)[C@H](CC[C@@H]3C[C@@H](O)CC(=O)O3)[C@H]21 [mevastatin, reference compound]
29002 mRNA [1]
  29002 mRNA expression: down-regulated

## O=C(O)c1cccnc1 [niacin]
17799 mRNA
  17799 mRNA expression: repressed
32135 mRNA
  32135 mRNA expression: repressed

## n-3 polyunsaturated fatty acid
6169 mRNA
  6169 mRNA expression: repressed

B1: interferon gamma: interferon gamma used to stimulate monocytes and macrophages (protein, UniProt P01579 24-161, looked up)
Interferon gamma: QDPYVKEAENLKKYFNAGHSDVADNGTLFLGILKNWKEESDRKIMQSQIVSFYFKLFKNFKDDQSIQKSVETIKEDMNVKFFNSNKKKRDDFEKLTNYSVTDLNVQRKAIHELIQVMAELSPAAKTGKRKRSQMLFRG
21833 mRNA
  21833 expression: upregulated

B2: CD40 ligand: CD40 ligand used to stimulate macrophages (protein, UniProt P29965 113-261, looked up)
CD40 ligand, soluble form: MQKGDQNPQIAAHVISEASSKTTSVLQWAEKGYYTMSNNLVTLENGKQLTVKRQGLYYIYAQVTFCSNREASSQAPFIASLCLKSPGRFERILLRAANTHSSAKPCGQQSIHLGGVFELQPGASVFVNVTDPSQVSHGTGFTSFGLLKL
29002 mRNA [2]
  29002 mRNA expression: upregulated
21833 mRNA
  21833 expression: upregulated
